Reference: patent US20240018145A1, “[…]-DEPENDENT EN[…] TREATING OR […]” (priority 2020, published 2024)

Tested on: FLU A (PR/8/34)
Experiment: Flu A Neuraminidase Antiviral Assay
Assay type: cell-based

Compound | EC50
CN1C(=O)c2c(O)c(=O)ccn2N2C(c3ccccc3)C(CCC(F)(F)F)CCC12C (single isomer, unassigned) [Compound 78B, 7-hydroxy-4a,5-dimethyl-1-phenyl-2-(3,3,3-trifluoropropyl)-1,2,3,4,4a,5-hexahydrodipyrido[1,2-b:2′,1′-f][1,2,4]triazine-6,8-dione] | 2.9 nM
Cc1ccccc1C1C(CC2CC2(F)F)CCC2N(C)C(=O)c3c(O)c(=O)ccn3N12 (single isomer, unassigned) [Compound 88B] | > 810 nM
CN1C(=O)c2c(O)c(=O)ccn2C2C1CCCC2(O)c1ccccc1 (single isomer, unassigned) [Compound 165B, 1,7-dihydroxy-5-methyl-1-phenyl-1,3,4,4a,5,11a-hexahydro-2H-pyrido[1,2-a]quinoxaline-6,8-dione] | > 8100 nM
Cc1ccccc1C1C(c2ccc(F)c(F)c2)CCC2N(C)C(=O)c3c(O)c(=O)ccn3N12 (single isomer, unassigned) [Compound 91A, 2-(3,4-difluorophenyl)-7-hydroxy-5-methyl-1-(o-tolyl)-1,2,3,4,4a,5-hexahydrodipyrido[1,2-b:2′,1′-f][1,2,4]triazine-6,8-dione] | 485 nM
CCCC1CCC2C(n3ccc(=O)c(O)c3C(=O)N2C)C1(O)c1ccccc1 (single isomer, unassigned) [Compound 166B, 1,7-dihydroxy-5-methyl-1-phenyl-2-propyl-1,3,4,4a,5,11a-hexahydro-2H-pyrido[1,2-a]quinoxaline-6,8-dione] | > 8100 nM
CCN1C(=O)c2c(O)c(=O)ccn2N2C1CCCC2(C)c1cccc(C)n1 (single isomer, unassigned) [Compound 53A, 5-ethyl-7-hydroxy-1-methyl-1-(6-methylpyridin-2-yl)-1,2,3,4,4a,5-hexahydrodipyrido[1,2-b:2′,1′-f][1,2,4]triazine-6,8-dione] | > 810 nM
CN1C(=O)c2c(O)c(=O)ccn2N2C1CCC1(CCCC(F)(F)C1)C2c1ccccc1 (single isomer, unassigned) [Compound 75B, 3,3-difluoro-7′-hydroxy-5′-methyl-1′-phenyl-3′,4′,4a′,5′-tetrahydro-1′H-spiro[cyclohexane-1,2′-dipyrido[1,2-b:2′,1′-f][1,2,4]triazine]-6′,8′-dione] | 8 nM
CN1C(=O)c2c(O)c(=O)ccn2N2C(c3ccccc3)C(C3CC3(F)F)CCC12 (single isomer, unassigned) [Compound 105B, 2-(2,2-difluorocyclopropyl)-7-hydroxy-5-methyl-1-phenyl-1,2,3,4,4a,5-hexahydrodipyrido[1,2-b:2′,1′-f][1,2,4]triazine-6,8-dione] | > 810 nM
Cc1ccccc1C1C(CC(F)(F)F)CC(C)C2N(C)C(=O)c3c(O)c(=O)ccn3N12 (single isomer, unassigned) [Compound 79B, 7-hydroxy-4,5-dimethyl-1-(o-tolyl)-2-(2,2,2-trifluoroethyl)-1,2,3,4,4a,5-hexahydrodipyrido[1,2-b:2′,1′-f][1,2,4]triazine-6,8-dione] | 2.3 nM
CC1(c2nccs2)CCCC2N(CC(F)(F)F)C(=O)c3c(O)c(=O)ccn3N21 (single isomer, unassigned) [Compound 41B, 7-hydroxy-1-methyl-1-(thiazol-2-yl)-5-(2,2,2-trifluoroethyl)-1,2,3,4,4a,5-hexahydrodipyrido[1,2-b:2′,1′-f][1,2,4]triazine-6,8-dione] | 11.1 nM
CC1CC2N(C)C(=O)c3c(O)c(=O)ccn3N2C(C)(c2ccccc2)C1 (single isomer, unassigned) [Compound 43B, 7-hydroxy-1,3,5-trimethyl-1-phenyl-1,2,3,4,4a,5-hexahydrodipyrido[1,2-b:2′,1′-f][1,2,4]triazine-6,8-dione] | 1100 nM
CN1C(=O)c2c(O)c(=O)ccn2N2C1CCCC2(C)c1ccccc1Cl (single isomer, unassigned) [Compound 20A, 1-(2-chlorophenyl)-7-hydroxy-1,5-dimethyl-1,2,3,4,4a,5-hexahydrodipyrido[1,2-b:2′,1′-f][1,2,4]triazine-6,8-dione] | 564 nM
